Measured values as given in US4670418A, “Method of using somatostatin as an analgesic or an anesthetic” (CuraMED Pharma GmbH, priority 1984, dated 1987).

Columns and labels:
[1] = penetration of the dura into the liquor upon peridural application; type: in vivo
[2] = intradural or intraspinal injections or infusions, anesthetic effect; type: in vivo
humans = assay: preliminary experiments with humans, peridural application; type: in vivo
rats = conditions: intracerebroventricular infusion; cited from earlier work
dogs = assay: investigation with dogs, analgesia test according to Cohen (heated plate); type: in vivo
[3] = in vivo; cited from earlier work
[4] = system: Cancer patients suffering from intolerable pain; assay: intraspinal and intraventricular injection and infusion in cancer patients with intolerable pain; type: in vivo; conditions: humans, intraspinal or intraventricular route
Experimental: Cancer patients suffering from intolerable pain in the final stage of post-operative pain were given 250 μg of somatostatin as an injection and thereafter 10 to 50 μg/hour of somatostatin as an infusion, in part via the intraspinal route and in part via the intraventricular route.

SMILES: C[C@H](N)C(=O)NCC(=O)N[C@H]1CSSC[C@@H](C(=O)O)NC(=O)[C@H](CO)NC(=O)[C@H]([C@@H](C)O)NC(=O)[C@H](Cc2ccccc2)NC(=O)[C@H]([C@@H](C)O)NC(=O)[C@H](CCCCN)NC(=O)[C@H](Cc2c[nH]c3ccccc23)NC(=O)[C@H](Cc2ccccc2)NC(=O)[C@H](Cc2ccccc2)NC(=O)[C@H](CC(N)=O)NC(=O)[C@H](CCCCN)NC1=O [somatostatin]
- penetration of the dura [1]: capable of rapidly (and to a high degree) penetrating the dura
- anesthetic effects [2]: have anesthetic effects
- analgesic effectiveness (humans; peridural application of 125 μg): analgesically effective
- analgesic effectiveness (humans; peridural application of 250 μg): analgesically effective
- analgesic effect (rats): a short-term analgesic effect was found
- signs of pain (dogs; dog having a large decubitus): showed no signs of pain
- duration of analgesic activity (dogs; dogs): maintained for several weeks
- sedation and behavior (dogs; dogs): had not been put under sedation and showed a balanced behavior
- side effects (dogs; dogs): No side effects were apparent
- period for which heated plate was tolerated (dogs; dogs, all animals, heated plate of 60° C., analgesia test according to Cohen): 5 s
- half-life [3]: 2 to 4 min
- analgesia ([4]; 250 μg injection then 10 to 50 μg/hour infusion): marked analgesia, comparable to that of morphine
- tolerability of the infusions ([4]; 10 to 50 μg/hour infusion): tolerated without any occurring side-effects for a period of over two weeks
